# ChEMBL document CHEMBL4828722, “The synthesis and bioactivity of pyrrolo[2,3-d]pyrimidine derivatives as tyrosine kinase inhibitors for NSCLC cells with EGFR mutations” (Eur J Med Chem, 2021)
# Assays:
# [1] = Selectivity index, ratio of IC50 for cytotoxicity against human HBE cells to IC50 for cytotoxicity against human HCC827 cells harboring EGFR del E746-A750 mutant assessed as reduction in cell viability measured after 48 hrs by CCK8 assay
# [2] = Selectivity index, ratio of IC50 for cytotoxicity against human A549 cells harboring wild type EGFR to IC50 for cytotoxicity against human HCC827 cells harboring EGFR del E746-A750 mutant assessed as reduction in cell viability measured after 48 hrs by CCK8 assay
# [3] = Selectivity index, ratio of IC50 for cytotoxicity against human NCI-H460 cells harboring wild type EGFR to IC50 for cytotoxicity against human HCC827 cells harboring EGFR del E746-A750 mutant assessed as reduction in cell viability measured after 48 hrs by CCK8 assay
structure (smiles),measurement,setting,value
C=CC(=O)Nc1cccc(Oc2nc(Nc3ccc(N4CCN(C)CC4)c(N)c3)nc3[nH]ccc23)c1,Selectivity Index,[1],493
same,Selectivity Index,[2],132
same,Selectivity Index,[3],579.7
